This passage reports Activity results from ChEMBL document CHEMBL5506061, “Chb-M', an Inhibitor of the RUNX Family Binding to DNA, Induces Apoptosis in p53-Mutated Non-Small Cell Lung Cancer and Inhibits Tumor Growth and Repopulation In Vivo” (J Med Chem, 2024).

Molecules are shown by their SMILES. The source made the active and inactive calls. The calls are words filed in the database; no cut-off is given here.

Data set [1] relates to NCI-H2228-Luc. Briefly: In vivo antitumor activity against human NCI-H2228-Luc cells xenografted in CB17.Cg.Prkdc-scid Lystbg-j/CrlCrlj mouse assessed as prolonged reduction in tumor volume (cancer free) at 25 mg/kg, po administered every day (35 administration in total) measured after 8 days of last dose. Format: functional, organism-based. To be noted: time 43.0 day.
Data set [2] has as its system NCI-H2228-Luc. Kind of data set: In vivo antitumor activity against human NCI-H2228-Luc cells xenografted in CB17.Cg.Prkdc-scid Lystbg-j/CrlCrlj mouse assessed as prolonged reduction in tumor volume at 25 mg/kg, po administered every day (35 administration in total) measured after 77 days of last dose. Format: functional, organism-based. As to conditions: time 77.0 day.

The test system of data set [3] is NCI-H2228-Luc. Kind of data set: In vivo antitumor activity against human NCI-H2228-Luc cells xenografted in CB17.Cg.Prkdc-scid Lystbg-j/CrlCrlj mouse assessed as reduction in tumor volume at 25 mg/kg, po administered every day (35 administration in total). Type of data set: functional, organism-based. As to conditions: time 35.0 day.
Data set [4] relates to BJ. Briefly: Cytotoxicity against human BJ cells assessed as cell viability at 0.3 to 3 uM incubated for 72 hrs by SF - cell counting reagent based colorimetric assay. Format: toxicity. To be noted: dose 0.3-3 µM.
The subject of data set [5] is NCI-H2228-Luc. Kind of data set: Anticancer activity against p53-mutated human NCI-H2228-Luc cells assessed as cell viability at 0.3 to 3 uM incubated for 72 hrs by SF - cell counting reagent based colorimetric assay. Format: functional. As to conditions: dose 0.3-3 µM.
The subject of data set [6] is NCI-H2228-Luc. Kind of data set: In vivo antitumor activity against human NCI-H2228-Luc cells xenografted in CB17.Cg.Prkdc-scid Lystbg-j/CrlCrlj mouse assessed as prolonged reduction in tumor volume at 25 mg/kg, po administered every day (35 administration in total) measured after 70 days of last dose. To be noted: time 70.0 day. Type of data set: functional, organism-based.

Data set [7] deals with NCI-H2228-Luc. Briefly: In vivo antitumor activity against human NCI-H2228-Luc cells xenografted in CB17.Cg.Prkdc-scid Lystbg-j/CrlCrlj mouse assessed as prolonged reduction in tumor volume (cancer free) at 25 mg/kg, po administered every day (35 administration in total) measured after 15 days of last dose. Format: functional, organism-based. To be noted: time 50.0 day.
The nature of data set [8]: Hematological toxicity in wild type mouse C-kit positive fraction of bone marrow cells assessed as decrease in colony forming capacity at 10 uM. To be noted: bone marrow cell. Type of data set: cell-based.
The subject of data set [9] is NCI-H2228-Luc. Briefly: In vivo antitumor activity against human NCI-H2228-Luc cells xenografted in CB17.Cg.Prkdc-scid Lystbg-j/CrlCrlj mouse assessed as prolonged reduction in tumor volume at 5 mg/kg, iv (tail vein) administered twice a week (10 injections in total) measured after 35 days of last dose relative to alectinib and ceritinib. Format: functional, organism-based. To be noted: time 70.0 day.

The test system of data set [10] is NCI-H2228-Luc. Kind of data set: Induction of apoptosis in p53-mutated human NCI-H2228-Luc cells assessed as late apoptotic cells at 0.3 to 3 uM incubated for 72 hrs by Annexin V-FITC and propidium iodide (PI) staining based flow cytometric analysis. Type of data set: functional, cell-based. As to conditions: dose 0.3-3 µM.
A short description of data set [11]: Hematological toxicity in CB17.Cg.Prkdc-scid Lystbg-j/CrlCrlj mouse xenografted with human NCI-H2228-Luc cells assessed as decrease in platelets at 10 mg/kg, iv (tail vein) administered twice a week (10 injections in total) measured after 3 days. Type of data set: organism-based. As to conditions: in vivo, 912 h, time 38 day.
Data set [12] relates to NCI-H2228-Luc. Kind of data set: Induction of apoptosis in p53-mutated human NCI-H2228-Luc cells assessed as early apoptotic cells at 0.3 to 3 uM incubated for 72 hrs by Annexin V-FITC and propidium iodide (PI) staining based flow cytometric analysis. Format: functional, cell-based. To be noted: dose 0.3-3 µM.
The subject of data set [13] is NCI-H2228-Luc. Kind of data set: In vivo antitumor activity against human NCI-H2228-Luc cells xenografted in CB17.Cg.Prkdc-scid Lystbg-j/CrlCrlj mouse assessed as reduction in tumor volume at 5 mg/kg, iv (tail vein) administered twice a week (10 injections in total) measured after 3 days. Type of data set: functional, organism-based. To be noted: time 38.0 day.
For data set [14], the system named is NCI-H2228-Luc. Kind of data set: Induction of RUNX1 mRNA level in human NCI-H2228-Luc cells at 0.3 to 3 uM incubated for 24 hrs by RT-qPCR analysis. Format: functional, cell-based. To be noted: dose 0.3-3 µM.
Data set [15] is described as follows: Toxicity in CB17.Cg.Prkdc-scid Lystbg-j/CrlCrlj mouse xenografted with human NCI-H2228-Luc cells assessed as change in body weight at 5 mg/kg, iv (tail vein) administered twice a week (10 injections in total) measured after 3 days. Format: organism-based. To be noted: in vivo, 912 h, time 38 day.
The nature of data set [16]: Hematological toxicity in CB17.Cg.Prkdc-scid Lystbg-j/CrlCrlj mouse xenografted with human NCI-H2228-Luc cells assessed as change in peripheral blood cell count at 320 microg/kg, iv for 3 months. Format: organism-based. To be noted: in vivo, 0.32 mg/kg, 2190 h, dose 320 µg/kg.
Data set [17] has as its system NCI-H2228-Luc. Kind of data set: Induction of RUNX2 mRNA level in human NCI-H2228-Luc cells at 0.3 to 3 uM incubated for 24 hrs by RT-qPCR analysis. As to conditions: dose 0.3-3 µM. Type of data set: functional, cell-based.
For data set [18], the system named is NCI-H2228-Luc. Kind of data set: Induction of apoptosis in p53-mutated human NCI-H2228-Luc cells assessed as decrease in BCL11A mRNA expression at 0.3 to 1 uM incubated for 24 hrs by RT-qPCR analysis. Type of data set: functional, cell-based. To be noted: dose 0.3-1 µM.
Data set [19] has as its system NCI-H2228-Luc. Briefly: Anticancer activity against p53-mutated human NCI-H2228-Luc cells assessed as cell viability incubated for 72 hrs by SF - cell counting reagent based colorimetric assay. To be noted: dose 0.3-3 µM. Format: functional.
Data set [20] has as its system NCI-H2228-Luc. Kind of data set: Induction of RUNX3 mRNA level in human NCI-H2228-Luc cells at 0.3 to 3 uM incubated for 24 hrs by RT-qPCR analysis. Format: functional, cell-based. As to conditions: dose 0.3-3 µM.
Data set [21] relates to NCI-H2228-Luc. Kind of data set: Induction of apoptosis in p53-mutated human NCI-H2228-Luc cells assessed as increase in TAp73 mRNA expression incubated for 24 hrs by RT-qPCR analysis. Format: functional, cell-based.

In the case of `CCc1cc2c(cc1N1CCC(N3CCOCC3)CC1)C(C)(C)c1[nH]c3cc(C#N)ccc3c1C2=O`, the outcome in data set [1] and in data set [3] was Active. Moreover, the outcome in data set [2] was inactive.

On to `CN(C)CCCNC(=O)c1cc(NC(=O)c2cc(NC(=O)c3cc(NC(=O)c4cc(NC(=O)CCCNC(=O)c5nc(NC(=O)c6nc(NC(=O)c7cc(NC(=O)c8nc(NC(=O)CCNC(=O)CCCc9ccc(N(CCO)CCO)cc9)cn8C)cn7C)cn6C)cn5C)cn4C)cn3C)cn2C)cn1C`, for which the Activity entry in [4] is listed as “Non-Toxic”. Also, the outcome in data set [5] was inactive.

Turning to `Cc1cc(Nc2ncc(Cl)c(Nc3ccccc3S(=O)(=O)C(C)C)n2)c(OC(C)C)cc1C1CCNCC1`, in [6], the outcome was inactive. The outcome in data set [3] and in data set [7] was Active.

For the molecule `O=C(O)CCCc1ccc(N(CCCl)CCCl)cc1` [CHLORAMBUCIL], the Activity result in [4] is “Non-Toxic”. The result in data set [5] was inactive.

As for `CN(C)CCCNC(=O)c1cc(NC(=O)c2cc(NC(=O)c3cc(NC(=O)c4cc(NC(=O)CCCNC(=O)c5nc(NC(=O)c6nc(NC(=O)c7cc(NC(=O)c8nc(NC(=O)CCNC(=O)CCCc9ccc(N(CCCl)CCCl)cc9)cn8C)cn7C)cn6C)cn5C)cn4C)cn3C)cn2C)cn1C`, the Activity entry in data set [8] was “Non-Toxic”; in data set [11] it was “Non-Toxic”; in data set [15], “Non-Toxic”; in [4], “Non-Toxic”; in [16], “Non-Toxic”; in data set [19], “Dose-Dependent Effect”. In data set [21], the Activity entry is “Dose-Dependent Effect”. Moreover, the outcome in data set [9], in data set [10], in [12], in [13], in data set [14] and in data set [17] was Active. The result in [18] and in data set [20] was Active.

With `CN(C)CCCNC(=O)c1cc(NC(=O)c2cc(NC(=O)c3nc(NC(=O)c4nc(NC(=O)CCCNC(=O)c5cc(NC(=O)c6cc(NC(=O)c7nc(NC(=O)c8nc(NC(=O)CCNC(=O)CCCc9ccc(N(CCCl)CCCl)cc9)cn8C)cn7C)cn6C)cn5C)cn4C)cn3C)cn2C)cn1C`, the Activity entry in data set [4] is recorded as “Non-Toxic”. Besides, the result in data set [5] was inactive.
